Data set [1] can be described thus: toxicity testing, oral LD50. The settings on record: in vivo.
Data set [2] is described as follows: toxicity testing, dermal LD50. The settings on record: in vivo, topical or ocular.
The nature of data set [3]: solubility of monomer in solvents. The class given is physicochemical. To be noted: wide variety of solvents. An excerpt:
The tert-butyl substituted thienothiophenes and their conjugated oligomers and polymers show better properties compared to their hydrogen, decyl and phenyl analogs.

`CC(C)(C)c1cc2cscc2s1` [2-tert-butyl-thieno[3,4-b]thiophene]: the values for the median lethal dose (LD50) in data set [1] and in data set [2] were greater than 500 mg/kg and greater than 400 mg/kg, respectively. Also, in data set [3], the solubility in solvents result is “readily soluble in a wide variety of solvents”.
In the case of `c1cc2cscc2s1` [Thieno[3,4-b]thiophene], the figures for the 50% lethal dose (LD50) in data set [1] and in data set [2] were 50 mg/kg and 200 to 400 mg/kg, respectively.
For `c1ccc(-c2cc3cscc3s2)cc1` [2-phenyl-thieno[3,4-b]thiophene], the solubility in solvents result in data set [3] is listed as “only sparingly soluble”.

As a reminder, the LD50 is the dose expected to kill half of the subjects tested. The low end stands for a more toxic substance, the high end for a less toxic substance.

The values above are taken from patent US7118692B2, “Substituted thienothiophene monomers and conducting polymers” (priority 2004, dated 2006).
